In patent publication US11174253B2, “Compound and pharmaceutical composition containing the same” (ALPHALA CO., LTD., priority 2017, dated 2021) one finds viability data, which are given here for 33 compounds.

The test system of the first assay is hepatocellular carcinoma cell line Hep3B. In words: Growth inhibition of Hep3B cells, 48 hr treatment, Hoechst 33342 nucleus count (GE InCell 2200). In kind it is cell-based. Conditions: Homo sapiens, Table 1, ratio of number of tumor cells treated with 10 μM compound to non-treated cells. In short, it runs like this: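 Compound exposure lasted 48 hr at 37° C, 5% CO2. Surviving nuclei were counted after Hoechst 33342 staining, and survival was expressed as the treated/non-treated cell number ratio, including the ratio at 10 μM compound.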
Turning to `CC(C)Oc1ccc(-c2nnc(NC(=O)Cc3ccc4nc(N)sc4c3)s2)cc1` [Compound 1-14, 2-(2-aminobenzo[d]thiazol-6-yl)-N-(5-(4-isopropoxyphenyl)-1,3,4-thiadiazol-2-yl)acetamide], the viability at 10 µM came out at 71%.

Regarding `Nc1nc2ccc(CC(=O)Nc3nnc(-c4ccc([N+](=O)[O-])cc4)s3)cc2s1` [Compound 1-8, 2-(2-aminobenzo[d]thiazol-6-yl)-N-(5-(4-nitrophenyl)-1,3,4-thiadiazol-2-yl)acetamide], the viability at 10 µM came to 76%.

`Nc1nc2ccc(CC(=O)Nc3nnc(-c4ccccc4OC(F)(F)F)s3)cc2s1` [Compound 1-11, 2-(2-aminobenzo[d]thiazol-6-yl)-N-(5-(2-(trifluoromethoxy)phenyl)-1,3,4-thiadiazol-2-yl)acetamide]: the viability at 10 µM is 68%.

Take `CCCc1ccc(-c2nnc(NC(=O)Cc3ccc4nc(N)sc4c3)s2)cc1` [Compound 1-33, 2-(2-aminobenzo[d]thiazol-6-yl)-N-(5-(4-propylphenyl)-1,3,4-thiadiazol-2-yl)acetamide]: the viability at 10 µM amounted to 44%.

With `CCOc1ccncc1-c1nnc(NC(=O)Cc2ccc3nc(N)sc3c2)s1` [Compound 1-34, 2-(2-aminobenzo[d]thiazol-6-yl)-N-(5-(4-ethoxypyridin-3-yl)-1,3,4-thiadiazol-2-yl)acetamide], the viability at 10 µM amounted to 78%.

The same assay, now with this note: Homo sapiens, Table 4, ratio of number of tumor cells treated with 10 μM compound to non-treated cells.
As for `CCOc1ccc(-c2cnc(NC(=O)Cc3ccc4nc(N)sc4c3)[nH]2)c(OCC)c1` [Compound 4-4, 2-(2-aminobenzo[d]thiazol-6-yl)-N-(5-(2,4-diethoxyphenyl)-1H-imidazol-2-yl)acetamide], the viability at 10 µM came to 40%.

The assay is the same for the next values; noted with them: Homo sapiens, Table 5, ratio of number of tumor cells treated with 10 μM compound to non-treated cells.
In the case of `CCC(C)(C)c1ccc(Oc2sc(NC(=O)c3ccc([N+](=O)[O-])s3)nc2-c2ccc(C(C)(C)C)cc2)cc1` [Compound 5-101, N-(4-(4-(tert-butyl)phenyl)-5-(4-(tert-pentyl)phenoxy)thiazol-2-yl)-5-nitrothiophene-2-carboxamide], the viability at 10 µM turned out to be 48%.

`CCOc1ccc(-c2nc(NC(=O)c3ccc([N+](=O)[O-])s3)sc2Oc2ccccc2)c(F)c1` [Compound 5-53, N-(4-(4-ethoxy-2-fluorophenyl)-5-phenoxythiazol-2-yl)-5-nitrothiophene-2-carboxamide]: the viability at 10 µM turned out to be 41%.

For `Cc1cc(Oc2sc(NC(=O)c3ccc([N+](=O)[O-])s3)nc2-c2ccc(F)cc2)cc(C)c1Br` [Compound 5-100, N-(5-(4-bromo-3,5-dimethylphenoxy)-4-(4-fluorophenyl)thiazol-2-yl)-5-nitrothiophene-2-carboxamide], the viability at 10 µM was found to be 30%.

`CC(C)(C)c1ccc(Oc2sc(NC(=O)c3ccc([N+](=O)[O-])s3)nc2-c2ccc(F)cc2)cc1` [Compound 5-64, N-(5-(4-(tert-butyl)phenoxy)-4-(4-fluorophenyl)thiazol-2-yl)-5-nitrothiophene-2-carboxamide]: the viability at 10 µM is 54%.

As to `CCCCOc1ccc(-c2nc(NC(=O)c3ccc([N+](=O)[O-])s3)sc2Oc2cc(C)cc(C)c2)cc1` [Compound 5-106, N-(4-(4-butoxyphenyl)-5-(3,5-dimethylphenoxy)thiazol-2-yl)-5-nitrothiophene-2-carboxamide], the viability at 10 µM worked out at 29%.

`COCCOc1ccc(-c2nc(NC(=O)c3ccc([N+](=O)[O-])s3)sc2Oc2ccccc2)cc1` [Compound 5-16, N-(4-(4-(2-methoxyethoxy)phenyl)-5-phenoxythiazol-2-yl)-5-nitrothiophene-2-carboxamide]: the viability at 10 µM worked out at 59%.

For `COCCOc1ccc(-c2nc(NC(=O)c3ccc([N+](=O)[O-])s3)sc2Oc2cccnc2)cc1` [Compound 5-15, N-(4-(4-(2-methoxyethoxy)phenyl)-5-(pyridin-3-yloxy)thiazol-2-yl)-5-nitrothiophene-2-carboxamide], the viability at 10 µM amounted to 54%.

Take `CCCOc1ccc(-c2nc(NC(=O)c3ccc([N+](=O)[O-])s3)sc2Oc2ccc(C#N)cc2OC)cc1` [Compound 5-40, N-(5-(4-cyano-2-methoxyphenoxy)-4-(4-propoxyphenyl)thiazol-2-yl)-5-nitrothiophene-2-carboxamide]: the viability at 10 µM is 46%.

Regarding `CCCOc1ccc(-c2nc(NC(=O)c3ccc([N+](=O)[O-])o3)sc2Oc2ccc(F)cc2)cc1` [Compound 5-49, N-(5-(4-fluorophenoxy)-4-(4-propoxyphenyl)thiazol-2-yl)-5-nitrofuran-2-carboxamide], the viability at 10 µM worked out at 41%.

In the case of `CCCCOc1ccc(-c2nc(NC(=O)c3ccc([N+](=O)[O-])s3)sc2Oc2ccc(C(C)(C)C)cc2)cc1` [Compound 5-90, N-(4-(4-butoxyphenyl)-5-(4-(tert-butyl)phenoxy)thiazol-2-yl)-5-nitrothiophene-2-carboxamide], the viability at 10 µM was determined as 48%.

Take `COc1cc(-c2nc(NC(=O)c3ccc([N+](=O)[O-])s3)sc2Oc2ccccc2)cc(OC)c1OC` [Compound 5-61, 5-nitro-N-(5-phenoxy-4-(3,4,5-trimethoxyphenyl)thiazol-2-yl)thiophene-2-carboxamide]: the viability at 10 µM was found to be 59%.

In the case of `O=C(Nc1nc(-c2ccc(F)cc2)c(Oc2ccc(OC(F)(F)F)cc2)s1)c1ccc([N+](=O)[O-])s1` [Compound 5-33, N-(4-(4-fluorophenyl)-5-(4-(trifluoromethoxy)phenoxy)thiazol-2-yl)-5-nitrothiophene-2-carboxamide], the viability at 10 µM was 40%.

Regarding `CCOc1ccc(-c2nc(NC(=O)c3ccc([N+](=O)[O-])s3)sc2Oc2ccc(F)cc2)cc1` [Compound 5-55, N-(4-(4-ethoxyphenyl)-5-(4-fluorophenoxy)thiazol-2-yl)-5-nitrothiophene-2-carboxamide], the viability at 10 µM stood at 47%.

`CCCOc1ccc(-c2nc(NC(=O)c3ccc([N+](=O)[O-])s3)sc2Oc2cc(F)cc(F)c2)cc1` [Compound 5-50, N-(5-(3,5-difluorophenoxy)-4-(4-propoxyphenyl)thiazol-2-yl)-5-nitrothiophene-2-carboxamide]: the viability at 10 µM amounted to 42%.

As to `CCCOc1ccc(-c2nc(NC(=O)c3ccc([N+](=O)[O-])s3)sc2Oc2cc(C)c(Br)c(C)c2)cc1` [Compound 5-28, N-(5-(4-bromo-3,5-dimethylphenoxy)-4-(4-propoxyphenyl)thiazol-2-yl)-5-nitrothiophene-2-carboxamide], the viability at 10 µM was 32%.

The same assay, now with this note: Homo sapiens, Table 6, ratio of number of tumor cells treated with 10 μM compound to non-treated cells.
Consider `COc1ccc(-c2sc(NC(=O)c3ccc([N+](=O)[O-])s3)nc2-c2ccc(C)cc2)cc1OC` [Compound 6-4, N-(5-(3,4-dimethoxyphenyl)-4-(p-tolyl)thiazol-2-yl)-5-nitrothiophene-2-carboxamide], for which the viability at 10 µM was determined as 64%.

Consider `CC(C)(C)c1ccc(-c2nc(NC(=O)c3ccc([N+](=O)[O-])s3)sc2-c2cccc(Cl)c2)cc1` [Compound 6-56, N-(4-(4-(tert-butyl)phenyl)-5-(3-chlorophenyl)thiazol-2-yl)-5-nitrothiophene-2-carboxamide], for which the viability at 10 µM was 28%.

Regarding `CC(C)(C)c1ccc(-c2nc(NC(=O)c3ccc([N+](=O)[O-])s3)sc2-c2c(F)cc(F)cc2F)cc1` [Compound 6-52, N-(4-(4-(tert-butyl)phenyl)-5-(2,4,6-trifluorophenyl)thiazol-2-yl)-5-nitrothiophene-2-carboxamide], the viability at 10 µM is 37%.

For `CC(C)(C)c1ccc(-c2nc(NC(=O)c3ccc([N+](=O)[O-])s3)sc2C(=O)N2CCOCC2)cc1` [Compound 6-49, N-(4-(4-(tert-butyl)phenyl)-5-(morpholine-4-carbonyl)thiazol-2-yl)-5-nitrothiophene-2-carboxamide], the viability at 10 µM stood at 57%.

Take `CC(C)(C)c1ccc(-c2nc(NC(=O)c3ccc([N+](=O)[O-])s3)sc2-c2ccccc2Br)cc1` [Compound 6-57, N-(5-(2-bromophenyl)-4-(4-(tert-butyl)phenyl)thiazol-2-yl)-5-nitrothiophene-2-carboxamide]: the viability at 10 µM stood at 29%.

With `O=C(Nc1nc(-c2ccc(Br)cc2)c(-c2ccccc2)s1)c1ccc([N+](=O)[O-])s1` [Compound 6-9, N-(4-(4-bromophenyl)-5-phenylthiazol-2-yl)-5-nitrothiophene-2-carboxamide], the viability at 10 µM was 71%.

Turning to `CCCOc1ccc(-c2nc(NC(=O)c3ccc([N+](=O)[O-])s3)sc2C(=O)N2CCN(C)CC2)cc1` [Compound 6-30, N-(5-(4-methylpiperazine-1-carbonyl)-4-(4-propoxyphenyl)thiazol-2-yl)-5-nitrothiophene-2-carboxamide], the viability at 10 µM came out at 58%.

In the case of `CCCOc1ccc(-c2nc(NC(=O)c3ccc([N+](=O)[O-])s3)sc2N2CCN(C)CC2)cc1` [Compound 6-22, N-(5-(4-methylpiperazin-1-yl)-4-(4-propoxyphenyl)thiazol-2-yl)-5-nitrothiophene-2-carboxamide], the viability at 10 µM was found to be 29%.

With `O=C(Nc1nc(-c2cccc([N+](=O)[O-])c2)c(Br)s1)c1ccc([N+](=O)[O-])s1` [Compound 6-13, N-(5-bromo-4-(3-nitrophenyl)thiazol-2-yl)-5-nitrothiophene-2-carboxamide], the viability at 10 µM came to 81%.

In the case of `COc1cccc(-c2nc(NC(=O)c3ccc([N+](=O)[O-])s3)sc2Br)c1` [Compound 6-14, N-(5-bromo-4-(3-methoxyphenyl)thiazol-2-yl)-5-nitrothiophene-2-carboxamide], the viability at 10 µM amounted to 83%.

Regarding `O=C(Nc1nc(-c2ccc(Br)cc2)cs1)c1ccc([N+](=O)[O-])s1` [Compound 6-7, N-(4-(4-bromophenyl)thiazol-2-yl)-5-nitrothiophene-2-carboxamide], the viability at 10 µM is 81%.

Regarding `CCCOc1ccc(-c2nc(NC(=O)c3ccc([N+](=O)[O-])s3)sc2C(=O)OCC)cc1` [Compound 6-23, ethyl 2-(5-nitrothiophene-2-carboxamido)-4-(4-propoxyphenyl)thiazole-5-carboxylate], the viability at 10 µM was 33%.

A word on the viability: it is the share of living cells, or the viability signal relative to a control.
